How the values were obtained:
Type in all cases: in vivo
[1] = test system: Diabrotica Balteata (Corn Root Worm); test: Example B1: Diabrotica balteata, spray on maize sprouts; conditions: 96 h, application rate of 200 ppm, L2 larvae, 4 days after infestation, read-out: control in at least one of the two categories (mortality or growth inhibition)
Protocol: Maize sprouts placed onto an agar layer in 24-well microtiter plates were treated with aqueous test solutions prepared from 10′000 ppm DMSO stock solutions by spraying. After drying, the plates were infested with L2 larvae (6 to 10 per well). The samples were assessed for mortality and growth inhibition in comparison to untreated samples 4 days after infestation.

[2] = test system: Chilo suppressalis (Striped Rice Stemborer); test: Example B4: Chilo suppressalis, artificial diet; conditions: 144 h, application rate of 200 ppm, L2 larvae, 6 days after infestation, read-out: control in at least one of the three categories (mortality, anti-feedant effect, or growth inhibition)
Protocol: 24-well microtiter plates with artificial diet were treated with aqueous test solutions prepared from 10′000 ppm DMSO stock solutions by pipetting. After drying, the plates were infested with L2 larvae (6-8 per well). The samples were assessed for mortality, anti-feeding effect, and growth inhibition in comparison to untreated samples 6 days after infestation. Control of Chilo suppressalis by a test sample is given when at least one of the categories mortality, anti-feedant effect, and growth inhibition is higher than the untreated sample.

[3] = test system: Plutella xylostella (Diamond Back Moth); test: Example B5: Plutella xylostella, artificial diet, 24-well; conditions: 192 h, application rate of 200 ppm, eggs, 8 days after infestation, read-out: control in at least one of the two categories (mortality or growth inhibition)
Protocol: 24-well microtiter plates with artificial diet were treated with aqueous test solutions prepared from 10′000 ppm DMSO stock solutions by pipetting. After drying, Plutella eggs were pipetted through a plastic stencil onto a gel blotting paper and the plate was closed with it. The samples were assessed for mortality and growth inhibition in comparison to untreated samples 8 days after infestation.

[4] = test system: Spodoptera littoralis (Egyptian Cotton Leaf Worm); test: Example B9: Spodoptera littoralis, spray on cotton leaf discs; conditions: foliar, 72 h, application rate of 200 ppm, L1 larvae, 3 days after infestation, read-out: control in at least one of the three categories (mortality, anti-feedant effect, or growth inhibition)
Protocol: Cotton leaf discs were placed onto agar in 24-well microtiter plates and sprayed with aqueous test solutions prepared from 10′000 ppm DMSO stock solutions. After drying the leaf discs were infested with five L1 larvae. The samples were assessed for mortality, anti-feeding effect, and growth inhibition in comparison to untreated samples 3 days after infestation. Control of Spodoptera littoralis by a test sample is given when at least one of the categories mortality, anti-feedant effect, and growth inhibition is higher than the untreated sample.

[5] = test system: Plutella xylostella (Diamondback Moth); test: Example B13: Plutella xylostella, artificial diet, 96-well; conditions: 216 h, application rate of 500 ppm, eggs/L1 larvae, 9 days after infestation
Protocol: 96-well microtiter plates containing artificial diet were treated with aqueous test solutions, prepared from 10′000 ppm DMSO stock solutions, by a liquid handling robot. After drying, eggs (˜30 per well) were infested onto a netted lid which was suspended above the diet. The eggs hatch and L1 larvae move down to the diet. The samples were assessed for mortality 9 days after infestation.

CC(NC(=O)c1cc(Br)cc(C(F)(F)F)c1)c1nc(Br)nn1-c1ncc(OC(F)F)cn1 (stereo not shown) [Compound P1, 3-bromo-N-[1-[5-bromo-2-[5-(difluoromethoxy)pyrimidin-2-yl]-1,2,4-triazol-3-yl]ethyl]-5-(trifluoromethyl) benzamide]
≥ 80%: percent control (mortality or growth inhibition) at 200 ppm [1] | percent control (mortality, anti-feedant effect or growth inhibition) at 200 ppm [2] | percent control (mortality or growth inhibition) at 200 ppm [3] | percent control (mortality, anti-feedant effect or growth inhibition) at 200 ppm [4] | mortality at 500 ppm [5]

CC(NC(=O)c1cc(OC(F)F)cc(C(F)(F)F)c1)c1nc(Br)nn1-c1ncc(OC(F)F)cn1 (stereo not shown) [Compound P3, N-[1-[5-bromo-2-[5-(difluoromethoxy)pyrimidin-2-yl]-1,2,4-triazol-3-yl]ethyl]-3-(difluoromethoxy)-5-(trifluoromethyl) benzamide]
≥ 80%: percent control (mortality or growth inhibition) at 200 ppm [1] | percent control (mortality, anti-feedant effect or growth inhibition) at 200 ppm [2] | percent control (mortality or growth inhibition) at 200 ppm [3] | percent control (mortality, anti-feedant effect or growth inhibition) at 200 ppm [4] | mortality at 500 ppm [5]

CC(NC(=O)c1cc(OCC(F)(F)F)cc(C(F)(F)F)c1)c1nc(Br)nn1-c1ncc(OC(F)F)cn1 (stereo not shown) [Compound P4, N-[1-[5-bromo-2-[5-(difluoromethoxy)pyrimidin-2-yl]-1,2,4-triazol-3-yl]ethyl]-3-(2,2,2-trifluoroethoxy)-5-(trifluoromethyl) benzamide]
≥ 80%: percent control (mortality or growth inhibition) at 200 ppm [1] | percent control (mortality, anti-feedant effect or growth inhibition) at 200 ppm [2] | percent control (mortality or growth inhibition) at 200 ppm [3] | percent control (mortality, anti-feedant effect or growth inhibition) at 200 ppm [4] | mortality at 500 ppm [5]

CC(NC(=O)c1cc(C(F)F)cc(C(F)(F)F)c1)c1nc(Br)nn1-c1ccc(C#N)cn1 (stereo not shown) [Compound P8, N-[1-[5-bromo-2-(5-cyano-2-pyridyl)-1,2,4-triazol-3-yl]ethyl]-3-(difluoromethyl)-5-(trifluoromethyl) benzamide]
≥ 80%: percent control (mortality or growth inhibition) at 200 ppm [1] | percent control (mortality, anti-feedant effect or growth inhibition) at 200 ppm [2] | percent control (mortality or growth inhibition) at 200 ppm [3] | percent control (mortality, anti-feedant effect or growth inhibition) at 200 ppm [4] | mortality at 500 ppm [5]

CC(NC(=O)c1cc(Br)cc(C(F)(F)F)c1)c1nc(Br)nn1-c1ccc(OC(F)F)cn1 (stereo not shown) [Compound P13, 3-bromo-N-[1-[5-bromo-2-[5-(difluoromethoxy)-2-pyridyl]-1,2,4-triazol-3-yl]ethyl]-5-(trifluoromethyl) benzamide]
≥ 80%: percent control (mortality or growth inhibition) at 200 ppm [1] | percent control (mortality, anti-feedant effect or growth inhibition) at 200 ppm [2] | percent control (mortality or growth inhibition) at 200 ppm [3] | percent control (mortality, anti-feedant effect or growth inhibition) at 200 ppm [4] | mortality at 500 ppm [5]

CC(NC(=O)c1cc(C(F)(F)F)cc(C(F)(F)F)c1)c1nc(Br)nn1-c1ccc(OCC(F)F)cn1 (stereo not shown) [Compound P15, N-[1-[5-bromo-2-[5-(2,2-difluoroethoxy)-2-pyridyl]-1,2,4-triazol-3-yl]ethyl]-3,5-bis(trifluoromethyl) benzamide]
≥ 80%: percent control (mortality or growth inhibition) at 200 ppm [1] | percent control (mortality, anti-feedant effect or growth inhibition) at 200 ppm [2] | percent control (mortality or growth inhibition) at 200 ppm [3] | percent control (mortality, anti-feedant effect or growth inhibition) at 200 ppm [4] | mortality at 500 ppm [5]

CC(NC(=O)c1cc(C(F)(F)F)cc(C(F)(F)F)c1)c1nc(Br)nn1-c1ccc(OCC(F)(F)F)cn1 (stereo not shown) [Compound P17, N-[1-[5-bromo-2-[5-(2,2,2-trifluoroethoxy)-2-pyridyl]-1,2,4-triazol-3-yl]ethyl]-3,5-bis(trifluoromethyl) benzamide]
≥ 80%: percent control (mortality or growth inhibition) at 200 ppm [1] | percent control (mortality, anti-feedant effect or growth inhibition) at 200 ppm [2] | percent control (mortality or growth inhibition) at 200 ppm [3] | percent control (mortality, anti-feedant effect or growth inhibition) at 200 ppm [4] | mortality at 500 ppm [5]

CC(NC(=O)c1cc(Br)cc(C(F)(F)F)c1)c1nc(Br)nn1-c1ncc(OCC(F)F)cn1 (stereo not shown) [Compound P18, 3-bromo-N-[1-[5-bromo-2-[5-(2,2-difluoroethoxy)pyrimidin-2-yl]-1,2,4-triazol-3-yl]ethyl]-5-(trifluoromethyl) benzamide]
≥ 80%: percent control (mortality or growth inhibition) at 200 ppm [1] | percent control (mortality, anti-feedant effect or growth inhibition) at 200 ppm [2] | percent control (mortality or growth inhibition) at 200 ppm [3] | percent control (mortality, anti-feedant effect or growth inhibition) at 200 ppm [4] | mortality at 500 ppm [5]

CC(NC(=O)c1cc(OCC(F)(F)F)cc(C(F)(F)F)c1)c1nc(Br)nn1-c1ncc(OCC(F)F)cn1 (stereo not shown) [Compound P19, N-[1-[5-bromo-2-[5-(2,2-difluoroethoxy)pyrimidin-2-yl]-1,2,4-triazol-3-yl]ethyl]-3-(2,2,2-trifluoroethoxy)-5-(trifluoromethyl) benzamide]
≥ 80%: percent control (mortality or growth inhibition) at 200 ppm [1] | percent control (mortality, anti-feedant effect or growth inhibition) at 200 ppm [2] | percent control (mortality or growth inhibition) at 200 ppm [3] | percent control (mortality, anti-feedant effect or growth inhibition) at 200 ppm [4] | mortality at 500 ppm [5]

CC(NC(=O)c1cc(OCC(F)F)cc(C(F)(F)F)c1)c1nc(Br)nn1-c1ncc(OCC(F)(F)F)cn1 (stereo not shown) [Compound P20, N-[1-[5-bromo-2-[5-(2,2,2-trifluoroethoxy)pyrimidin-2-yl]-1,2,4-triazol-3-yl]ethyl]-3-(2,2-difluoroethoxy)-5-(trifluoromethyl) benzamide]
≥ 80%: percent control (mortality, anti-feedant effect or growth inhibition) at 200 ppm [2] | percent control (mortality or growth inhibition) at 200 ppm [3] | percent control (mortality, anti-feedant effect or growth inhibition) at 200 ppm [4] | mortality at 500 ppm [5]

CC(NC(=O)c1cc(OCC(F)(F)F)cc(C(F)(F)F)c1)c1nc(Br)nn1-c1ccc(C#N)cn1 (stereo not shown) [Compound P21, N-[1-[5-bromo-2-(5-cyano-2-pyridyl)-1,2,4-triazol-3-yl]ethyl]-3-(2,2,2-trifluoroethoxy)-5-(trifluoromethyl) benzamide]
≥ 80%: percent control (mortality or growth inhibition) at 200 ppm [1] | percent control (mortality, anti-feedant effect or growth inhibition) at 200 ppm [2] | percent control (mortality or growth inhibition) at 200 ppm [3] | percent control (mortality, anti-feedant effect or growth inhibition) at 200 ppm [4] | mortality at 500 ppm [5]

CC(NC(=O)c1cc(Cl)cc(C(F)(F)F)c1)c1nc(Br)nn1-c1ncc(OCC(F)F)cn1 (stereo not shown) [Compound P27, N-[1-[5-bromo-2-[5-(2,2-difluoroethoxy)pyrimidin-2-yl]-1,2,4-triazol-3-yl]ethyl]-3-chloro-5-(trifluoromethyl) benzamide]
≥ 80%: percent control (mortality or growth inhibition) at 200 ppm [1] | percent control (mortality, anti-feedant effect or growth inhibition) at 200 ppm [2] | percent control (mortality or growth inhibition) at 200 ppm [3] | percent control (mortality, anti-feedant effect or growth inhibition) at 200 ppm [4] | mortality at 500 ppm [5]

CC(NC(=O)c1cc(C(F)F)cc(C(F)(F)F)c1)c1nc(Br)nn1-c1ncc(OC(F)F)cn1 (stereo not shown) [Compound P28, N-[1-[5-bromo-2-[5-(difluoromethoxy)pyrimidin-2-yl]-1,2,4-triazol-3-yl]ethyl]-3-(difluoromethyl)-5-(trifluoromethyl) benzamide]
≥ 80%: percent control (mortality or growth inhibition) at 200 ppm [1] | percent control (mortality, anti-feedant effect or growth inhibition) at 200 ppm [2] | percent control (mortality or growth inhibition) at 200 ppm [3] | percent control (mortality, anti-feedant effect or growth inhibition) at 200 ppm [4] | mortality at 500 ppm [5]

CC(NC(=O)c1cc(OCC(F)F)cc(C(F)(F)F)c1)c1nc(Br)nn1-c1ccc(OCC(F)F)cn1 (stereo not shown) [Compound P36, N-[1-[5-bromo-2-[5-(2,2-difluoroethoxy)-2-pyridyl]-1,2,4-triazol-3-yl]ethyl]-3-(2,2-difluoroethoxy)-5-(trifluoromethyl) benzamide]
≥ 80%: percent control (mortality or growth inhibition) at 200 ppm [3] | percent control (mortality, anti-feedant effect or growth inhibition) at 200 ppm [4] | mortality at 500 ppm [5]

— patent US12552766B2, “Pesticidally active azole amide compounds” (SYNGENTA CROP PROTECTION AG, priority 2019, dated 2026)
